According to PMC8520055 (Asian Journal of Pharmaceutical Sciences, 2021):
pIC50: −log10 of the molar value. Read-outs that look alike come from different tables or passages of the source.

Columns and labels:
Pharmacokinetics of ATV [1] = assay type: in vivo, rats; settings: for Plasma concentrations vs control rats: ATV 10 mg/kg p.o., rats treated with RIF 30 mg/kg i.v.
Pharmacokinetics of ATV [2] = assay type: in vivo, rats; settings: for metabolite plasma concentrations vs control: ATV 10 mg/kg p.o., at 7.5, 15, 30 and 60 min after KTZ 20 mg/kg i.v.
[3] = plasma 4β-HC; cited from earlier work
[4] = Hepatic disposition of ATV and GCDCA-S in rats with ANIT-induced liver injury; assay type: in vivo; settings: ANIT-induced liver injury (Fig. S15)
[5] = Plasma and hepatic concentration of KTZ after a single oral dose; assay type: in vivo, rats; settings: for concentration at 1 h: rat, plasma, po; for Hepatic concentration: 1 h
Cyp3a [6] = test: Endogenous Cyp3a markers; assay type: in vivo, rats
HepaRG cells [7] = test: Metabolism of ATV and cholesterol in HepaRG cells in presence of KTZ; assay type: cell-based, human; settings: KTZ 10 µM, HepaRG cells (Fig. S14)
Oatps [8] = test: Hepatic uptake of ATV and GCDCA-S after 7 d oral RIF or KTZ; assay type: in vivo, rats; settings: for hepatic uptake of ATV: inhibitor p.o. 7 d (RIF 30 mg/kg, KTZ 20 mg/kg), ATV 10 mg/kg p.o., 30 min
Liver function = assay type: in vivo, rats
Cyp3a [9] = test: Plasma GCDCA-S, cholesterol and 4β-HC after intravenous KTZ
[10] = Plasma concentration of RIF after a single oral dose; assay type: in vivo, rats; settings: rat
Oatps [11] = test: Endogenous substrates of Oatps; assay type: in vivo, rats
HepaRG cells [12] = test: Uptake of ATV and GCDCA-S in HepaRG cells in presence of RIF; assay type: cell-based; settings: Homo sapiens
Oatps [13] = test: Plasma GCDCA-S, cholesterol and 4β-HC after intravenous RIF; assay type: in vivo, rats
Oatps [14] = test: Reversibility of RIF inhibition of GCDCA-S uptake; assay type: in vivo, rats; settings: RIF 30 mg/kg p.o. 7 d, then 7-d washout
Oatps [15] = settings: read-out: IC50 for Oatps in vitro; cited from earlier work
[16] = cited from earlier work
[17] = KTZ single oral dose 20-80 mg/kg
[18] = RIF 30-120 mg/kg single oral dose
[19] = RIF 30-120 mg/kg single oral dose, 2 h

## CC(C)c1c(C(=O)Nc2ccccc2O)c(-c2ccccc2)c(-c2ccc(F)cc2)n1CCC(O)CC(O)CC(=O)O (stereo not drawn) [2-OH ATV, 2‑hydroxy-atorvastatin]
Pharmacokinetics of ATV [1]
  Plasma concentrations vs control rats: markedly higher
Pharmacokinetics of ATV [2]
  metabolite plasma concentrations vs control: significantly decreased

## CC(C)c1c(C(=O)Nc2ccc(O)cc2)c(-c2ccccc2)c(-c2ccc(F)cc2)n1CC[C@@H](O)C[C@@H](O)CC(=O)O [4-OH ATV, 4‑hydroxy-atorvastatin]
Pharmacokinetics of ATV [1]
  Plasma concentrations vs control rats: markedly higher
Pharmacokinetics of ATV [2]
  metabolite plasma concentrations vs control: significantly decreased

## CC(C)CCC[C@@H](C)[C@H]1CC[C@H]2[C@@H]3CC=C4[C@@H](O)[C@@H](O)CC[C@]4(C)[C@H]3CC[C@]12C [4β-HC, 4β-hydroxycholesterol]
[3]
  half-life: ~17 days

## S=C=Nc1cccc2ccccc12 [ANIT, α-naphthylisothiocyanate]
[4]
  liver mRNA level of Oatp: decreased

## CC(=O)N1CCN(c2ccc(OCC3COC(Cn4ccnc4)(c4ccc(Cl)cc4Cl)O3)cc2)CC1 (stereo not drawn) [KTZ, ketoconazole]
Pharmacokinetics of ATV [2]; after single i.v. KTZ 20 mg/kg, over 0-360 min (Fig. S10)
  KTZ level (plasma): above 1.5 µM
[5]; 20 mg/kg
  concentration at 1 h: 23.9 µM
[5]; 40 mg/kg
  concentration at 1 h: 31.4 µM
[5]; 80 mg/kg
  concentration at 1 h: 49.6 µM
[5]; single oral dose 20 mg/kg
  Hepatic concentration: 87.1 µmol/kg tissue
[5]; single oral dose 40 mg/kg
  Hepatic concentration: 119.2 µmol/kg tissue
[5]; single oral dose 80 mg/kg
  Hepatic concentration: 160.6 µmol/kg tissue
Cyp3a [6]; KTZ multiple-dose 7 d
  blood concentration of 6β-HC: increased
Cyp3a [6]; KTZ repeated oral dose 7 d, 20-80 mg/kg
  plasma concentrations of 4β-HC: markedly elevated
Cyp3a [6]; [17]
  hepatic 6β-HC levels: dose-dependently decreased
  plasma 6β-HC levels: not been influenced
Cyp3a [6]; KTZ single oral dose 20-80 mg/kg (Fig. S5)
  Hepatic 4β-HC levels: significantly increased
HepaRG cells [7]
  degradation ATV to 2-OH ATV and 4-OH ATV: inhibited
  formation of 4β-HC: did not affect
Oatps [8]
  hepatic uptake of ATV: minimally impacted
Liver function; KTZ 20, 40, 80 mg/kg single or multiple oral dose (Fig. S2)
  liver function (serum AST, ALT, ALP): not affect liver function
Cyp3a [9]; after intravenous KTZ 20 mg/kg
  plasma levels of cholesterol and its metabolite 4β-HC: not affected
Cyp3a [9]; after intravenous KTZ 20 mg/kg (Fig. S9)
  plasma concentrations of GCDCA-S: not changed

## CO[C@H]1/C=C/O[C@@]2(C)Oc3c(C)c(O)c4c(O)c(c(/C=N/N5CCN(C)CC5)c(O)c4c3C2=O)NC(=O)/C(C)=C\C=C\[C@H](C)[C@H](O)[C@@H](C)[C@@H](O)[C@@H](C)[C@H](OC(C)=O)[C@@H]1C [RIF, rifampicin]
Pharmacokinetics of ATV [1]; after single i.v. RIF 30 mg/kg, over 0-360 min (Fig. S8)
  plasma RIF level: above 5.5 µM
[10]; 30 mg/kg
  concentration at 2 h: 11.6 µM
[10]; 60 mg/kg
  concentration at 2 h: 22.4 µM
[10]; 120 mg/kg
  concentration at 2 h: 26.5 µM
Oatps [11]; [18]
  hepatic uptake of CP I/III: did not inhibit
  plasma concentrations of CP I/III: did not affect
Oatps [11]; RIF 30-120 mg/kg single oral dose (Fig. S3)
  biosynthesis of GCDCA-S from GCDCA in the liver: did not affect
Oatps [11]; [19]
  hepatic uptake ratio of CA, GCA, GUDCA, TCDCA, TUDCA, THDCA, TLCA and GCDCA-S: decreased
  plasma CA, CDCA, HDCA, GCA, GUDCA, TCDCA, TDCA, THDCA and GCDCA-S levels: dose-dependently increased
HepaRG cells [12]; read-out: IC50 for uptake of ATV
  pIC50: 6.00
HepaRG cells [12]; read-out: IC50 for uptake of GCDCA-S
  pIC50: 5.01
Oatps [13]; after intravenous RIF 30 mg/kg
  plasma concentrations of GCDCA-S: significantly increased
Oatps [13]; after intravenous RIF 30 mg/kg (Fig. S7)
  plasma concentration of cholesterol and 4β-HC: did not affect
Oatps [8]; RIF 30 mg/kg p.o. 7 d
  hepatic uptake of GCDCA-S: decreased
  plasma concentration of GCDCA-S: significantly increased
Oatps [8]
  hepatic uptake of ATV: greatly attenuated
Oatps [14]
  effect on the hepatic uptake of GCDCA-S after washout: fully reversed
  plasma GCDCA-S level vs vehicle-treated rats after washout: not significant different
Liver function; RIF 30, 60, 120 mg/kg single oral dose (Fig. S2)
  liver function (serum AST, ALT, ALP): not affect liver function
Oatps [15]
  pIC50: 5.77 to 6.85
[16]
  plasma unbound fraction: 0.265
